Experimental findings from patent publication US8754105B2, “Macrocyclic inhibitors of hepatitis C virus” (Medivir AB, priority 2005, dated 2014) are described below.

Some results are limits rather than exact numbers.

Assay [1] deals with HCV type 1b replicon in Huh-7 luc/neo cells. In words: HCV replicon assay (Huh-Luc cells, luciferase readout). The format is cell-based. The note with it: Hepatitis C virus, Huh-7, 72 h, three days incubation, luciferase activity. The text has this: The compounds of formula (I) were examined for activity in the inhibition of HCV RNA replication in a cellular assay. […] The cellular assay was based on a bicistronic expression construct, as described by Lohmann et al. (1999) Science vol. 285 pp. 110-113 with modifications described by Krieger et al. (2001) Journal of Virology 75: 4614-4624, in a multi-target screening strategy. In essence, the method was as follows.
The assay utilized the stably transfected cell line Huh-7 luc/neo (hereafter referred to as Huh-Luc). This cell line harbors an RNA encoding a bicistronic expression construct comprising the wild type NS3-NS5B regions of HCV type 1b translated from an Internal Ribosome Entry Site (IRES) from encephalomyocarditis virus (EMCV), preceded by a reporter portion (FfL-luciferase), and a selectable marker portion (neo^R, neomycine phosphotransferase). The construct is bordered by 5′ and 3′ NTRs (non-translated regions) from HCV type 1b. Continued culture of the replicon cells in the presence of G418 (neo^R) is dependent on the replication of the HCV RNA. The stably transfected replicon cells that express HCV RNA, which replicates autonomously and to high levels, encoding inter alia luciferase, are used for screening the antiviral compounds.
The replicon cells were plated in 384 well plates in the presence of the test and control compounds which were added in various concentrations. Following an incubation of three days, HCV replication was measured by assaying luciferase activity (using standard luciferase assay substrates and reagents and a Perkin Elmer ViewLux™ ultraHTS microplate imager). Replicon cells in the control cultures have high luciferase expression in the absence of any inhibitor. The inhibitory activity of the compound on luciferase activity was monitored on the Huh-Luc cells, enabling a dose-response curve for each test compound.

For assay [2], the target named is full-length hepatitis C NS3 protease with NS4A cofactor (Hepatitis C virus genotype 1a (isolate H77) (HCV), UniProt P27958). In words: HCV NS3/4A protease inhibition (enzymatic) assay.
Chain of full-length hepatitis C NS3 protease with NS4A cofactor (P27958 1027-1657): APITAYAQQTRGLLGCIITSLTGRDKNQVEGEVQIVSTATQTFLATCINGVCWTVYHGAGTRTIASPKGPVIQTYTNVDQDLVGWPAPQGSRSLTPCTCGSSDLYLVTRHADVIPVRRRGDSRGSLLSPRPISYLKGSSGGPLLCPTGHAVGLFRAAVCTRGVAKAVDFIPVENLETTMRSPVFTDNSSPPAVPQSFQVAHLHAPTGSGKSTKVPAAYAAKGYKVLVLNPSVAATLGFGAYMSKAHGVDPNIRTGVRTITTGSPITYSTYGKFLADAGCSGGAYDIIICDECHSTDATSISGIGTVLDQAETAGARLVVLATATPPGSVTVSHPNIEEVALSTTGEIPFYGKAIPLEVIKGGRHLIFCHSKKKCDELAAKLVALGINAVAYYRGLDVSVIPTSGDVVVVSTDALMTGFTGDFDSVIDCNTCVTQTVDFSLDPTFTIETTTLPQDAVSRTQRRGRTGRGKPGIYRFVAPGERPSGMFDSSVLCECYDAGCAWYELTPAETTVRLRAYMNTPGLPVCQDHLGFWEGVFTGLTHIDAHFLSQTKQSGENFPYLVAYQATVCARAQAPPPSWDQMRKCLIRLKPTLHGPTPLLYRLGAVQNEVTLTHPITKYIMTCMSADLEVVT
Procedure: The aim of this in vitro assay was to measure the inhibition of HCV NS3/4A protease complexes by the compounds of the present invention.
The inhibition of full-length hepatitis C NS3 protease enzyme was measured essentially as described in Poliakov, 2002 Prot Expression & Purification 25 363 371. Briefly, the hydrolysis of a depsipeptide substrate, Ac-DED(Edans)EEAbuψ[COO]ASK(Dabcyl)-NH2 (AnaSpec, San José, USA), was measured spectrofluorometrically in the presence of a peptide cofactor, [sequence] […] The enzyme (1 nM) was incubated in 50 mM HEPES, pH 7.5, 10 mM DTT, 40% glycerol, 0.1% n-octyl-D-glucoside, with 25 μM NS4A cofactor and inhibitor at 30° C. for 10 min, whereupon the reaction was initiated by addition of 0.5 μM substrate. Inhibitors were dissolved in DMSO, sonicated for 30 sec. and vortexed. The solutions were stored at −20° C. between measurements.
The final concentration of DMSO in the assay sample was adjusted to 3.3%. The rate of hydrolysis was corrected for inner filter effects according to published procedures. […] A minimum of two replicates was performed for all measurements.

`COc1ccc2c(O[C@@H]3C[C@H]4C(=O)N[C@]5(C(=O)NS(=O)(=O)C6CC6)C[C@H]5/C=C\CCCCOC(=O)N4C3)cc(-c3ccccc3)nc2c1` [Compound 23, N-[17-(7-methoxy-2-phenylquinolin-4-yloxy)-2,14-dioxo-3,15-diaza-13-oxatricyclo[13.3.0.0^4,6]octadec-7-ene-4-carbonyl](cyclopropyl)-sulfonamide] gave an EC50 in assay [1] of 1080 nM. For the same compound, in assay [2], the affinity, expressed as Ki, was 0.2 nM.
As for `COc1ccc2c(O[C@@H]3C[C@H]4C(=O)N[C@]5(C(=O)O)C[C@H]5/C=C\CCCCCOC(=O)N4C3)cc(-c3ccccc3)nc2c1` [Compound 24, 18-(7-methoxy-2-phenylquinolin-4-yloxy)-2,15-dioxo-3,16-diaza-14-oxatricyclo[14.3.0.0^4,6]nonadec-7-ene-4-carboxylic acid], in assay [1], the EC50 was over 10000 nM. In assay [2], the Ki turned out to be 40 nM.
Take `COc1ccc2c(O[C@@H]3C[C@H]4C(=O)N[C@]5(C(=O)NS(=O)(=O)C6CC6)C[C@H]5/C=C\CCCCCOC(=O)N4C3)cc(-c3ccccc3)nc2c1` [Compound 25, N-[18-(7-methoxy-2-phenylquinolin-4-yloxy)-2,15-dioxo-3,16-diaza-14-oxatricyclo[14.3.0.0^4,6]nonadec-7-ene-4-carbonyl](cyclopropyl)-sulfonamide]: the EC50 in assay [1] stood at 481 nM. This compound also came in with a Ki in assay [2] of 2.4 nM.
`COc1ccc2c(O[C@@H]3C[C@H]4C(=O)N[C@]5(C(=O)NS(=O)(=O)C6CC6)C[C@H]5/C=C\CCCCOC(=O)N4C3)nc(Cl)cc2c1` [Compound 17, N-[17-(3-chloro-6-methoxyisoquinolin-1-yloxy)-2,14-dioxo-3,15-diaza-13-oxatricyclo[13.3.0.0^4,6]octadec-7-ene-4-carbonyl](cyclopropyl) sulfonamide] came in with an EC50 in assay [1] of over 10000 nM. In addition, the Ki in assay [2] is 43 nM.
The like results for `COc1ccc2c(O[C@@H]3C[C@H]4C(=O)N[C@]5(C(=O)O)C[C@H]5/C=C\CCCCOC(=O)N4C3)cc(-c3ccccc3)nc2c1` [Compound 22, 17-(7-methoxy-2-phenylquinolin-4-yloxy)-2,14-dioxo-3,15-diaza-13-oxatricyclo[13.3.0.0^4,6]octadec-7-ene-4-carboxylic acid] were, in that order, over 10000 nM and 1070 nM.
On to `COc1ccc2c(O[C@@H]3C[C@H]4C(=O)N[C@]5(C(=O)O)C[C@H]5/C=C\CCCCOC(=O)N4C3)nc(Cl)cc2c1` [Compound 16, 17-(3-chloro-6-methoxyisoquinolin-1-yloxy)-2,14-dioxo-3,15-diaza-13-oxatricyclo[13.3.0.0^4,6]octadec-7-ene-4-carboxylic acid], for which the EC50 in assay [1] is over 10000 nM. The affinity in assay [2] corresponds to a Ki of 1000 nM.
